Experimental data as given in patent publication US9593149B2, “Amylin and calcitonin receptor agonist” (Novo Nordisk A/S, priority 2014, dated 2017).
In brackets after ≈: the same amount, converted by molar mass. Numbered stars: 1 amine (or outer) side, 2 acyl side, 3 side chain; on linkers, the order of the positions; unused ones are H or OH. Side chains are listed from the residue outwards. Peptide text beside a SMILES is read from it. * marks the point of attachment. C20 diacid = O=C(O)CCCCCCCCCCCCCCCCCCC(=O)*; C18 diacid = O=C(O)CCCCCCCCCCCCCCCCC(=O)*; γGlu = O=C(O)[C@H](CCC(=O)[*:2])N[*:1]

Experiment: Assay (IV) determination of solubility
Assay type: physicochemical
Method: Assay (IV)—Determination of Solubility
The mimylin peptide was dissolved in water at ˜500 nmol/ml and mixed 1:1 with a series of buffers (100 mM glycylglycine pH 3.0, 100 mM glycylglycine pH 4.0, 100 mM glycylglycine pH 5.0, 100 mM bistrispropane pH 6.0, 100 mM bistrispropane pH 6.5, 100 mM bistrispropane pH 7.0, 100 mM bistrispropane pH 7.5, 100 mM bistrispropane pH 8.0).

| SMILES | Solubility (pH 3.0) | Solubility (pH 4.0) | Solubility (pH 5.0) | solubility at 18 h (pH 6.0) | solubility at 18 h (pH 6.5) | solubility at 18 h (pH 7.0) | Solubility (pH 7.5) | Solubility (pH 8.0) | Solubility (pH 6.0) | Solubility (pH 6.5) | Solubility (pH 7.0) | solubility at 18 h (pH 5.0) | solubility at 18 h (pH 4.0) | solubility at 18 h (pH 7.5) | solubility at 18 h (pH 8.0) |
| --- | --- | --- | --- | --- | --- | --- | --- | --- | --- | --- | --- | --- | --- | --- | --- |
| CC(C)C[C@H](NC(=O)CNC(=O)[C@H](CO)NC(=O)[C@H](C)N)C(=O)N[C@@H](CO)C(=O)N[C@H](C(=O)N[C@@H](C)C(=O)N[C@@H](C)C(=O)N[C@@H](CC(C)C)C(=O)NCC(=O)N[C@@H](CCCNC(=N)N)C(=O)N[C@@H](CC(C)C)C(=O)N[C@@H](CO)C(=O)N[C@@H](CCC(N)=O)C(=O)N[C@@H](CCC(=O)O)C(=O)N[C@@H](CC(C)C)C(=O)N[C@@H](Cc1cnc[nH]1)C(=O)N[C@@H](CCC(=O)O)C(=O)N[C@@H](CC(C)C)C(=O)N[C@@H](CCC(N)=O)C(=O)N[C@H](C(=O)N[C@@H](Cc1ccc(O)cc1)C(=O)N1CCC[C@H]1C(=O)N[C@@H](CCCNC(=N)N)C(=O)N[C@H](C(=O)N[C@@H](CCC(=O)O)C(=O)N[C@H](C(=O)NCC(=O)N[C@@H](CO)C(=O)N[C@@H](CCCCNC(=O)CC[C@H](NC(=O)CCCCCCCCCCCCCCCCCCC(=O)O)C(=O)O)C(=O)N[C@H](C(=O)N[C@@H](Cc1ccc(O)cc1)C(N)=O)[C@@H](C)O)[C@@H](C)O)[C@@H](C)O)[C@@H](C)O)[C@@H](C)O [compound 107, [des1, 4G, 15Q, 21Q, 23Y, 30S, 31K(C20 diacid-gGlu), 32T, 33Y]mimylin] (H-ASGLSTAALGRLSQELHELQTYPRTETGSK([γGlu-C20 diacid])TY-NH2) | ≧200 μM | ≧200 μM | ≧200 μM | 148 µM (≈ 580 µg/mL) | 129 µM (≈ 506 µg/mL) | 74 µM (≈ 290 µg/mL) | ≧200 μM | ≧200 μM |  |  |  |  |  |  |  |
| CC(C)C[C@H](NC(=O)[C@H](CCC(=O)O)NC(=O)[C@H](Cc1cnc[nH]1)NC(=O)[C@H](CC(C)C)NC(=O)[C@H](CCC(=O)O)NC(=O)[C@H](C)NC(=O)[C@H](CO)NC(=O)[C@H](CC(C)C)NC(=O)[C@H](CCCNC(=N)N)NC(=O)CNC(=O)[C@H](CC(C)C)NC(=O)[C@@H](NC(=O)[C@H](C)NC(=O)[C@@H](NC(=O)[C@H](CO)NC(=O)[C@H](CC(C)C)NC(=O)[C@@H]1CCCN1C(=O)[C@@H]1CCCN1C(=O)[C@H](C)NC(=O)[C@H](CCC(=O)O)NC(=O)CCCCCCCCCCCCCCCCC(=O)O)[C@@H](C)O)C(C)C)C(=O)N[C@@H](C)C(=O)N[C@H](C(=O)N[C@@H](CC(C)C)C(=O)N1CCC[C@H]1C(=O)N[C@@H](CCCNC(=N)N)C(=O)N[C@H](C(=O)N[C@@H](CCC(=O)O)C(=O)N[C@H](C(=O)NCC(=O)N1CCC[C@H]1C(=O)N[C@@H](CCC(=O)O)C(=O)N[C@@H](CO)C(=O)N1CCC[C@H]1C(N)=O)[C@@H](C)O)[C@@H](C)O)[C@@H](C)O [compound 38, [N-terminal(C18 diacid), 3P, 4P, 9V]mimylin] ({C18 diacid}-EAPPLSTAVLGRLSAELHELATLPRTETGPESP-NH2) | ≧200 μM | ≧200 μM | ≧200 μM |  |  |  | ≧200 μM | ≧200 μM | ≧200 μM | ≧200 μM | ≧200 μM |  |  |  |  |
| CC(C)C[C@H](NC(=O)CNC(=O)[C@H](CO)NC(=O)[C@H](C)NC(=O)CC[C@H](NC(=O)CCCCCCCCCCCCCCCCCCC(=O)O)C(=O)O)C(=O)N[C@@H](CO)C(=O)N[C@H](C(=O)N[C@@H](C)C(=O)N[C@H](C(=O)N[C@@H](CC(C)C)C(=O)NCC(=O)N[C@@H](CCCNC(=N)N)C(=O)N[C@@H](CC(C)C)C(=O)N[C@@H](CO)C(=O)N[C@@H](CCC(N)=O)C(=O)N[C@@H](CCC(=O)O)C(=O)N[C@@H](CC(C)C)C(=O)N[C@@H](Cc1cnc[nH]1)C(=O)N[C@@H](CCC(=O)O)C(=O)N[C@@H](CC(C)C)C(=O)N[C@@H](CCC(N)=O)C(=O)N[C@H](C(=O)N[C@@H](Cc1ccc(O)cc1)C(=O)N1CCC[C@H]1C(=O)N[C@@H](CCCNC(=N)N)C(=O)N[C@H](C(=O)N[C@@H](CCC(=O)O)C(=O)N[C@H](C(=O)NCC(=O)N[C@@H](CO)C(=O)NCC(=O)N[C@H](C(=O)N[C@@H](Cc1ccc(O)cc1)C(N)=O)[C@@H](C)O)[C@@H](C)O)[C@@H](C)O)[C@@H](C)O)C(C)C)[C@@H](C)O [compound 118, [N-terminal(C20 diacid-gGlu), des1, 4G, 9V, 15Q, 21Q, 23Y, 30S, 31G, 32T, 33Y]mimylin] | ≧200 μM |  |  | 17 µM (≈ 65.9 µg/mL) | 5 µM (≈ 19.4 µg/mL) | 26 µM (≈ 101 µg/mL) |  |  |  |  |  | 8 µM (≈ 31 µg/mL) | 2 µM (≈ 7.75 µg/mL) | 90 µM (≈ 349 µg/mL) | 173 µM (≈ 671 µg/mL) |

The remaining lines, values ahead:

| Solubility (pH 3.0) | Solubility (pH 4.0) | Solubility (pH 5.0) | solubility at 18 h (pH 6.0) | solubility at 18 h (pH 6.5) | solubility at 18 h (pH 7.0) | Solubility (pH 7.5) | Solubility (pH 8.0) | Solubility (pH 6.0) | Solubility (pH 6.5) | Solubility (pH 7.0) | solubility at 18 h (pH 5.0) | solubility at 18 h (pH 4.0) | solubility at 18 h (pH 7.5) | solubility at 18 h (pH 8.0) | SMILES |
| --- | --- | --- | --- | --- | --- | --- | --- | --- | --- | --- | --- | --- | --- | --- | --- |
| ≧200 μM | ≧200 μM | ≧200 μM |  |  |  | ≧200 μM | ≧200 μM | ≧200 μM | ≧200 μM | ≧200 μM |  |  |  |  | CC(C)C[C@H](NC(=O)[C@H](C)NC(=O)[C@H](C)NC(=O)[C@@H](NC(=O)[C@H](CO)NC(=O)[C@H](CC(C)C)NC(=O)[C@H](CCC(=O)O)NC(=O)[C@H](CO)NC(=O)[C@H](C)NC(=O)CC[C@H](NC(=O)CCCCCCCCCCCCCCCCCCC(=O)O)C(=O)O)[C@@H](C)O)C(=O)NCC(=O)N[C@@H](Cc1cnc[nH]1)C(=O)N[C@@H](CC(C)C)C(=O)N[C@@H](CO)C(=O)N[C@@H](C)C(=O)N[C@@H](CCC(=O)O)C(=O)N[C@@H](CC(C)C)C(=O)N[C@@H](Cc1cnc[nH]1)C(=O)N[C@@H](CCC(=O)O)C(=O)N[C@@H](CC(C)C)C(=O)N[C@@H](C)C(=O)N[C@H](C(=O)N[C@@H](CC(C)C)C(=O)N1CCC[C@H]1C(=O)N[C@@H](Cc1cnc[nH]1)C(=O)N[C@H](C(=O)N[C@@H](CCC(=O)O)C(=O)N[C@H](C(=O)NCC(=O)N[C@H](C(=O)NCC(=O)N[C@H](C(=O)N1CCC[C@H]1C(N)=O)[C@@H](C)O)[C@@H](C)O)[C@@H](C)O)[C@@H](C)O)[C@@H](C)O [compound 93, [N-terminal(C20 diacid-gGlu), des1, 12H, 25H, 30T, 31G, 32T]mimylin] ({C20 diacid-γGlu}-ASELSTAALGHLSAELHELATLPHTETGTGTP-NH2) |
| ≧200 μM | ≧200 μM |  |  |  |  | ≧200 μM | ≧200 μM | ≧200 μM | ≧200 μM | ≧200 μM | 101 µM (≈ 376 µg/mL) |  |  |  | CC(C)C[C@H](NC(=O)[C@H](C)NC(=O)[C@H](C)NC(=O)[C@@H](NC(=O)[C@H](CO)NC(=O)[C@H](CC(C)C)NC(=O)[C@H](CCC(=O)O)NC(=O)[C@H](CO)NC(=O)[C@H](C)NC(=O)CC[C@H](NC(=O)CCCCCCCCCCCCCCCCCCC(=O)O)C(=O)O)[C@@H](C)O)C(=O)NCC(=O)N[C@@H](CCCNC(=N)N)C(=O)N[C@@H](CC(C)C)C(=O)N[C@@H](CO)C(=O)N[C@@H](C)C(=O)N[C@@H](CCC(=O)O)C(=O)N[C@@H](CC(C)C)C(=O)N[C@@H](Cc1cnc[nH]1)C(=O)N[C@@H](CCC(=O)O)C(=O)N[C@@H](CC(C)C)C(=O)N[C@@H](C)C(=O)N[C@H](C(=O)N[C@@H](CC(C)C)C(=O)N1CCC[C@H]1C(=O)N[C@@H](CCCNC(=N)N)C(=O)N[C@H](C(=O)N[C@@H](CCC(=O)O)C(=O)N[C@H](C(=O)NCC(=O)N[C@@H](CO)C(=O)NCC(=O)N[C@@H](CO)C(=O)N[C@@H](Cc1ccccc1)C(N)=O)[C@@H](C)O)[C@@H](C)O)[C@@H](C)O [compound 61, [N-terminal(C20 diacid-gGlu), des1, 30S, 31G, 33F]mimylin] ({C20 diacid-γGlu}-ASELSTAALGRLSAELHELATLPRTETGSGSF-NH2) |
| ≧200 μM |  |  |  |  |  | ≧200 μM | ≧200 μM | ≧200 μM | ≧200 μM | ≧200 μM | 6 µM (≈ 22.8 µg/mL) | 1 µM (≈ 3.79 µg/mL) |  |  | CC(C)C[C@H](NC(=O)[C@H](C)NC(=O)[C@H](C)NC(=O)[C@@H](NC(=O)[C@H](CO)NC(=O)[C@H](CC(C)C)NC(=O)[C@H](CCC(=O)O)NC(=O)[C@H](CO)NC(=O)[C@H](C)NC(=O)CC[C@H](NC(=O)CCCCCCCCCCCCCCCCCCC(=O)O)C(=O)O)[C@@H](C)O)C(=O)NCC(=O)N[C@@H](CCCNC(=N)N)C(=O)N[C@@H](CC(C)C)C(=O)N[C@@H](CO)C(=O)N[C@@H](C)C(=O)N[C@@H](CCC(=O)O)C(=O)N[C@@H](CC(C)C)C(=O)N[C@@H](Cc1cnc[nH]1)C(=O)N[C@@H](CCC(=O)O)C(=O)N[C@@H](CC(C)C)C(=O)N[C@@H](C)C(=O)N[C@H](C(=O)N[C@@H](Cc1ccc(O)cc1)C(=O)N1CCC[C@H]1C(=O)N[C@@H](CCCNC(=N)N)C(=O)N[C@H](C(=O)N[C@@H](CCC(=O)O)C(=O)N[C@H](C(=O)NCC(=O)N[C@@H](CO)C(=O)NCC(=O)N[C@@H](CO)C(=O)N[C@@H](Cc1ccc(O)cc1)C(=O)O)[C@@H](C)O)[C@@H](C)O)[C@@H](C)O [compound 88, [N-terminal(C20 diacid-gGlu), des1, 23Y, 30S, 31G, 33Y, C-terminal(−)]mimylin] ({C20 diacid-γGlu}-ASELSTAALGRLSAELHELATYPRTETGSGSY-OH) |
